The subject of this data set is CCRIS mutagenicity, Ames/micronucleus/aberration tests. Description: CCRIS mutagenicity studies.
The mark [1] stands for this setting: Test System: AMES SALMONELLA TYPHIMURIUM, Strain/Indicator: TA98, Metabolic Activation: NONE, Method: STANDARD PLATE.
The mark [2] stands for this setting: Test System: AMES SALMONELLA TYPHIMURIUM, Strain/Indicator: TA98, Metabolic Activation: RAT, LIVER, S-9, AROCLOR 1254, Method: STANDARD PLATE.
Setting [3] is: Test System: AMES SALMONELLA TYPHIMURIUM, Strain/Indicator: TA100, Metabolic Activation: NONE, Method: STANDARD PLATE.
The mark [4] stands for this setting: Test System: AMES SALMONELLA TYPHIMURIUM, Strain/Indicator: TA100, Metabolic Activation: RAT, LIVER, S-9, AROCLOR 1254, Method: STANDARD PLATE.
[5] abbreviates: Test System: AMES SALMONELLA TYPHIMURIUM, Strain/Indicator: TA98, Metabolic Activation: HAMSTER, LIVER, S-9, AROCLOR 1254 (10%), Method: PREINCUBATION
Where [6] appears, read: Test System: AMES SALMONELLA TYPHIMURIUM, Strain/Indicator: TA98, Metabolic Activation: NONE, Method: PREINCUBATION
[7] abbreviates: Test System: AMES SALMONELLA TYPHIMURIUM, Strain/Indicator: TA100, Metabolic Activation: HAMSTER, LIVER, S-9, AROCLOR 1254 (10%), Method: PREINCUBATION
[8] abbreviates: Test System: AMES SALMONELLA TYPHIMURIUM, Strain/Indicator: TA100, Metabolic Activation: NONE, Method: PREINCUBATION
[9] abbreviates: Test System: AMES SALMONELLA TYPHIMURIUM, Strain/Indicator: TA100, Metabolic Activation: RAT, LIVER, S-9, AROCLOR 1254 (10%), Method: PREINCUBATION
[10] abbreviates: Test System: AMES SALMONELLA TYPHIMURIUM, Strain/Indicator: TA1535, Metabolic Activation: HAMSTER, LIVER, S-9, AROCLOR 1254 (10%), Method: PREINCUBATION
Setting [11] is: Test System: AMES SALMONELLA TYPHIMURIUM, Strain/Indicator: TA1535, Metabolic Activation: NONE, Method: PREINCUBATION
[12] abbreviates: Test System: AMES SALMONELLA TYPHIMURIUM, Strain/Indicator: TA1535, Metabolic Activation: RAT, LIVER, S-9, AROCLOR 1254 (10%), Method: PREINCUBATION

Each structure is given as a SMILES string. Activity calls are given as the source filed them. How the calls were made is not given here.

As for `COC(=O)C1(C(N)=O)OC1(C)C(O)C(C)C` (stereo not drawn), the mutagenic call by setting is: (Test System: AMES SALMONELLA TYPHIMURIUM, Strain/Indicator: TA98, Metabolic Activation: NONE, Method: DISK ASSAY) “inactive; negative”; under setting [1], “inactive; negative”; (Test System: AMES SALMONELLA TYPHIMURIUM, Strain/Indicator: TA98, Metabolic Activation: RAT, LIVER, S-9, AROCLOR 1254, Method: DISK ASSAY) “inactive; negative”; under setting [2], “active; positive”; under setting [3], “inactive; negative”; under setting [4], “inactive; negative”.

With `Oc1ccc(O)c(-c2ccccc2)c1`, the mutagenic call (Test System: CHINESE HAMSTER V-79, Strain/Indicator: V-79 (HGPRT)/6-THIOGUANINE, Metabolic Activation: NONE) is “inactive; negative”.

`Nc1ccc(Cc2ccc(N)cc2)cc1`: the mutagenic call reads like this: (End Point: IN VIVO MICRONUCLEUS, Test System: PERIPHERAL BLOOD RETICULOCYTES, Species: RAT, Strain/Sex: FISHER 344 OR SD/MALE, Route: ORAL OR IP) “inactive; negative”; (Test System: AMES SALMONELLA TYPHIMURIUM, Strain/Indicator: TA97, Metabolic Activation: HAMSTER, LIVER, S-9, AROCLOR 1254 (10%), Method: PREINCUBATION) “active; positive”; (Test System: AMES SALMONELLA TYPHIMURIUM, Strain/Indicator: TA97, Metabolic Activation: NONE, Method: PREINCUBATION) “inactive; negative”; under setting [5], “active; positive”; under setting [6], “inactive; negative”; under setting [1], “inactive; negative”. Further, the mutagenic call is “active; positive” under setting [2]; “active; positive” (Test System: AMES SALMONELLA TYPHIMURIUM, Strain/Indicator: TA98, Metabolic Activation: RAT, LIVER, S-9, PCB, Method: PREINCUBATION); “active; positive” (Test System: AMES SALMONELLA TYPHIMURIUM, Strain/Indicator: TA98, Metabolic Activation: RAT, LIVER, S-9, PCB, Method: STANDARD PLATE); “inactive; negative” (Test System: AMES SALMONELLA TYPHIMURIUM, Strain/Indicator: TA98, Metabolic Activation: RAT, LIVER, S-9, PHENOBARBITAL, Method: PREINCUBATION); “active; positive” under setting [7]; “inactive; negative” under setting [8]. The mutagenic call under setting [3] is “inactive; negative”; the mutagenic call under setting [9] is “active; positive”; the mutagenic call under setting [4] was “active; positive”; the mutagenic call (Test System: AMES SALMONELLA TYPHIMURIUM, Strain/Indicator: TA100, Metabolic Activation: RAT, LIVER, S-9, PCB, Method: PREINCUBATION) was “active; positive”; the mutagenic call (Test System: AMES SALMONELLA TYPHIMURIUM, Strain/Indicator: TA100, Metabolic Activation: RAT, LIVER, S-9, PCB, Method: STANDARD PLATE) is “active; positive”; the mutagenic call (Test System: AMES SALMONELLA TYPHIMURIUM, Strain/Indicator: TA100, Metabolic Activation: RAT, LIVER, S-9, PHENOBARBITAL, Method: PREINCUBATION) was “active; positive”. For the same molecule, the mutagenic call runs as follows: (Test System: AMES SALMONELLA TYPHIMURIUM, Strain/Indicator: TA1535, Metabolic Activation: HAMSTER, LIVER, S-9, AROCLOR 1254 (5 OR 30%), Method: PREINCUBATION) “active; positive”; under setting [10], “active; positive”; under setting [11], “inactive; negative”; under setting [12], “inactive; negative”; (Test System: E. COLI, Strain/Indicator: WP2 UVRA, Metabolic Activation: HAMSTER, LIVER, S-9, AROCLOR 1254, Method: STANDARD PLATE) “inactive; negative”; (Test System: E. COLI, Strain/Indicator: WP2 UVRA, Metabolic Activation: HAMSTER, LIVER, S-9, Method: STANDARD PLATE) “inactive; negative”. In addition, the mutagenic call runs as follows: (Test System: E. COLI, Strain/Indicator: WP2 UVRA, Metabolic Activation: MOUSE, LIVER, S-9, AROCLOR 1254, Method: STANDARD PLATE) “inactive; negative”; (Test System: E. COLI, Strain/Indicator: WP2 UVRA, Metabolic Activation: MOUSE, LIVER, S-9, Method: STANDARD PLATE) “inactive; negative”; (Test System: E. COLI, Strain/Indicator: WP2 UVRA, Metabolic Activation: NONE, Method: STANDARD PLATE) “inactive; negative”; (Test System: E. COLI, Strain/Indicator: WP2 UVRA, Metabolic Activation: RAT, LIVER, S-9, AROCLOR 1254, Method: STANDARD PLATE) “inactive; negative”; (Test System: E. COLI, Strain/Indicator: WP2 UVRA, Metabolic Activation: RAT, LIVER, S-9, Method: STANDARD PLATE) “inactive; negative”; (Test System: UDS RAT HEPATOCYTES, Strain/Indicator: BROMODEOXYURIDINE INCORP, Metabolic Activation: NONE, Method: FLOW CYTOMETRIC ANALYSIS) “inactive; negative”. The mutagenic call (Test System: UDS RAT HEPATOCYTES, Strain/Indicator: THY INCORP, Metabolic Activation: NONE, Method: AUTORADIOGRAPHY) is “inactive; negative”.

As for `Nc1ccc(/C=C/c2ccc(N)c(S(=O)(=O)O)c2)c(S(=O)(=O)O)c1`, the mutagenic call was “inactive; negative” under setting [5]; “inactive; negative” under setting [6]; “inactive; negative” (Test System: AMES SALMONELLA TYPHIMURIUM, Strain/Indicator: TA98, Metabolic Activation: RAT, LIVER, S-9, AROCLOR 1254 (10%), Method: PREINCUBATION); “inactive; negative” under setting [7]; “inactive; negative” under setting [8]; “inactive; negative” under setting [9]. Besides, the mutagenic call under setting [10] was “inactive; negative”; the mutagenic call under setting [11] was “inactive; negative”; the mutagenic call under setting [12] is “inactive; negative”; the mutagenic call (Test System: AMES SALMONELLA TYPHIMURIUM, Strain/Indicator: TA1537, Metabolic Activation: HAMSTER, LIVER, S-9, AROCLOR 1254 (10%), Method: PREINCUBATION) was “inactive; negative”; the mutagenic call (Test System: AMES SALMONELLA TYPHIMURIUM, Strain/Indicator: TA1537, Metabolic Activation: NONE, Method: PREINCUBATION) is “inactive; negative”; the mutagenic call (Test System: AMES SALMONELLA TYPHIMURIUM, Strain/Indicator: TA1537, Metabolic Activation: RAT, LIVER, S-9, AROCLOR 1254 (10%), Method: PREINCUBATION) was “inactive; negative”.

`CCOP(=O)(OCC)Oc1cc(C)nc(C(C)C)n1`: the mutagenic call is “inactive; negative” under setting [1]; “inactive; negative” (Test System: AMES SALMONELLA TYPHIMURIUM, Strain/Indicator: TA98, Metabolic Activation: RAT, LIVER, S-9, Method: STANDARD PLATE); “active; positive” under setting [3]; “inactive; negative” (Test System: AMES SALMONELLA TYPHIMURIUM, Strain/Indicator: TA100, Metabolic Activation: RAT, LIVER, S-9, Method: STANDARD PLATE).

Consider `O=C1NC(=S)NC(=O)C1C(=O)Nc1ccccc1`, for which the mutagenic call reads like this: (Test System: AMES SALMONELLA TYPHIMURIUM, Strain/Indicator: TA102, Metabolic Activation: NONE, Method: STANDARD PLATE) “inactive; negative”; (Test System: CHINESE HAMSTER V-79, Strain/Indicator: V-79 (HPRT)/6-THIOGUANINE, Metabolic Activation: NONE) “inactive; negative”; (Test System: MOUSE LYMPHOMA, Strain/Indicator: L5178Y (HPRT)/6-THIOGUANINE, Metabolic Activation: NONE, Method: FLUCTUATION TEST) “active; positive”; (Test System: MOUSE LYMPHOMA, Strain/Indicator: L5178Y (TK+/TK-), Metabolic Activation: NONE, Method: FLUCTUATION TEST) “active; positive”.

The record behind these values is PubChem BioAssay AID1259407 (Chemical Carcinogenesis Research Information System (CCRIS), 2018).
